Laboratory results reported in US12723063B2, “GIPR-agonist compounds” (Eli Lilly and Company, priority 2019, dated 2026).
*1 amine or outer side, *2 acyl side, *3 side chain or, on linkers, in order; H or OH if unused. Where a SMILES comes first, the peptide text is derived from it. Side-chain parts run from the residue outwards. [ ]: non-standard residue; d: D form. The star is where a group is joined. C20 diacid = O=C(O)CCCCCCCCCCCCCCCCCCC(=O)*; αMePhe(2-F) = C[C@](N)(Cc1ccccc1F)C(=O)O; γGlu = O=C(O)[C@H](CCC(=O)[*:2])N[*:1]; 4Pal = N[C@@H](Cc1ccncc1)C(=O)O; αMeL = CC(C)C[C@](C)(N)C(=O)O; AEEA = NCCOCCOCC(=O)O; Aib = CC(C)(N)C(=O)O

What was measured:
[1] = biological target: T1, human GIPR (Homo sapiens, UniProt P48546); assay: [125I]-GIP binding, SPA with WGA beads, 0.1% bacitracin; conditions: geometric mean, read-out: hGIPR Ki
T1 construct: expressed in transfected cells; crude membranes
T1 sequence (P48546 22-466): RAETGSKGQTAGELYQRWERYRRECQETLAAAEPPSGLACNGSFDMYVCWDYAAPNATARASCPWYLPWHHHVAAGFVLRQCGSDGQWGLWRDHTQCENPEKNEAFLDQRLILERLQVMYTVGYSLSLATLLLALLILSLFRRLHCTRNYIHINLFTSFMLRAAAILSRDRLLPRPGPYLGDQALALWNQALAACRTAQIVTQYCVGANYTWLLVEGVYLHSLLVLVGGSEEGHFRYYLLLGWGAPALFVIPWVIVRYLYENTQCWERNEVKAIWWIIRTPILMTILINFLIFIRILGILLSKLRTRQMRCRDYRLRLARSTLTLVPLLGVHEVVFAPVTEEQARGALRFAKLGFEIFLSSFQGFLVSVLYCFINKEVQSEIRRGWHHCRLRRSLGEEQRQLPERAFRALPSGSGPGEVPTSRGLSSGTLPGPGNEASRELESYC
Outline: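 Ki values are geometric means (SEM, n independent days), derived from four-parameter nonlinear regression of IC50. Membranes came from hGIPR-expressing CHO cells.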

[2] = biological target: T2, human GLP-1R (Homo sapiens, UniProt P43220); assay: [125I]-GLP-1 binding, SPA with WGA beads, 0.1% bacitracin; conditions: geometric mean, read-out: hGLP1R Ki
T2 construct: expressed in transfected cells; crude membranes
T2 sequence (P43220 24-463): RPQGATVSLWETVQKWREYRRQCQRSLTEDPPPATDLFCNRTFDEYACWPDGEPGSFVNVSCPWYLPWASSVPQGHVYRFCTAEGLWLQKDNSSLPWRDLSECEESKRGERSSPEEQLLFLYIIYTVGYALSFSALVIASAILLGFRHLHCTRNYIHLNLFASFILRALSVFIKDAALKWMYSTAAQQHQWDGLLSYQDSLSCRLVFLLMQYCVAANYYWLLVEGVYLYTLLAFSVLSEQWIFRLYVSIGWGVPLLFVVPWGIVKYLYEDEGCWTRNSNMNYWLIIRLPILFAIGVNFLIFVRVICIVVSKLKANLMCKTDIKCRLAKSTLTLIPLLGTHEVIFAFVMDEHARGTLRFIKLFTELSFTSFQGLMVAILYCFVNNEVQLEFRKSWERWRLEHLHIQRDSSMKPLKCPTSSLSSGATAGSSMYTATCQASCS
Outline: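 Binding buffer was 25 mM HEPES pH 7.4 with 2.5 mM CaCl2, 1 mM MgCl2, 0.1% (w/v) bacitracin, 0.003% Tween-20 and EDTA-free protease inhibitors. Four-parameter regression gave IC50, converted to Ki (geometric mean, SEM, n independent days).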

CC[C@H](C)[C@H](NC(=O)[C@H](Cc1ccccc1)NC(=O)[C@@H](NC(=O)CNC(=O)[C@H](CCC(=O)O)NC(=O)C(C)(C)NC(=O)[C@@H](N)Cc1ccc(O)cc1)[C@@H](C)O)C(=O)N[C@@H](CO)C(=O)N[C@@H](CC(=O)O)C(=O)N[C@@H](Cc1ccc(O)cc1)C(=O)N[C@@H](CO)C(=O)N[C@H](C(=O)N[C@@](C)(CC(C)C)C(=O)N[C@@H](CC(C)C)C(=O)N[C@@H](CC(=O)O)C(=O)N[C@@H](CCCCN)C(=O)N[C@@H](CCCCNC(=O)COCCOCCNC(=O)COCCOCCNC(=O)CC[C@H](NC(=O)CCCCCCCCCCCCCCCCCCC(=O)O)C(=O)O)C(=O)N[C@@H](Cc1c[nH]cn1)C(=O)N[C@@H](CCC(N)=O)C(=O)NC(C)(C)C(=O)N[C@@H](CC(=O)O)C(=O)N[C@@H](Cc1ccccc1)C(=O)N[C@H](C(=O)N[C@@H](CCC(=O)O)C(=O)N[C@@H](Cc1ccc(O)cc1)C(=O)N[C@@H](CC(C)C)C(=O)N[C@@H](CC(C)C)C(=O)N[C@@H](CCC(=O)O)C(=O)N[C@@H](C)C(=O)NCC(=O)N1CCC[C@H]1C(=O)N[C@@H](CO)C(=O)N[C@@H](CO)C(=O)NCC(=O)N[C@@H](C)C(=O)N1CCC[C@H]1C(=O)N1CCC[C@H]1C(=O)N1CCC[C@H]1C(=O)N[C@@H](CO)C(N)=O)C(C)C)[C@@H](C)CC [Example 68] (H-Y[Aib]EGTFISDYSI[αMeL]LDKK([AEEA-AEEA-γGlu-C20 diacid])HQ[Aib]DFVEYLLEAGPSSGAPPPS-NH2)
Ki [1]: 0.0948 nM | Ki [2]: 421 nM

CC[C@H](C)[C@H](NC(=O)[C@H](CO)NC(=O)[C@H](Cc1ccc(O)cc1)NC(=O)[C@H](CC(=O)O)NC(=O)[C@H](CO)NC(=O)[C@@H](NC(=O)[C@](C)(Cc1ccccc1F)NC(=O)[C@@H](NC(=O)CNC(=O)[C@H](CCC(=O)O)NC(=O)C(C)(C)NC(=O)[C@@H](N)Cc1ccc(O)cc1)[C@@H](C)O)[C@@H](C)CC)C(=O)N[C@@H](C)C(=O)N[C@@H](CC(C)C)C(=O)N[C@@H](CC(=O)O)C(=O)N[C@@H](CCCCN)C(=O)N[C@@H](CCCCNC(=O)COCCOCCNC(=O)COCCOCCNC(=O)CC[C@H](NC(=O)CCCCCCCCCCCCCCCCCCC(=O)O)C(=O)O)C(=O)N[C@@H](Cc1c[nH]cn1)C(=O)N[C@@H](CCC(N)=O)C(=O)NC(C)(C)C(=O)N[C@@H](CC(=O)O)C(=O)N[C@@H](Cc1ccccc1)C(=O)N[C@H](C(=O)N[C@@H](CCC(=O)O)C(=O)N[C@@H](Cc1ccc(O)cc1)C(=O)N[C@@H](CC(C)C)C(=O)N[C@@H](CC(C)C)C(=O)N[C@@H](CCC(=O)O)C(=O)N[C@H](C(=O)NCC(=O)N1CCC[C@H]1C(=O)N[C@@H](CO)C(=O)N[C@@H](CO)C(=O)NCC(=O)N[C@@H](C)C(=O)N1CCC[C@H]1C(=O)N1CCC[C@H]1C(=O)N1CCC[C@H]1C(=O)N[C@@H](CO)C(N)=O)[C@@H](C)O)C(C)C [Example 36] (H-Y[Aib]EGT[αMePhe(2-F)]ISDYSIALDKK([AEEA-AEEA-γGlu-C20 diacid])HQ[Aib]DFVEYLLETGPSSGAPPPS-NH2)
Ki [1]: 0.0683 nM | Ki [2]: 393 nM

CC[C@H](C)[C@H](NC(=O)[C@H](CO)NC(=O)[C@H](Cc1ccc(O)cc1)NC(=O)[C@H](CC(=O)O)NC(=O)[C@H](CO)NC(=O)[C@@H](NC(=O)[C@](C)(Cc1ccccc1F)NC(=O)[C@@H](NC(=O)CNC(=O)[C@H](CCC(=O)O)NC(=O)[C@H](C)NC(=O)[C@@H](Cc1ccc(O)cc1)NC(C)=O)[C@@H](C)O)[C@@H](C)CC)C(=O)N[C@@H](C)C(=O)N[C@@H](CC(C)C)C(=O)N[C@@H](CC(=O)O)C(=O)N[C@@H](CCCCN)C(=O)N[C@@H](CCCCNC(=O)COCCOCCNC(=O)COCCOCCNC(=O)CC[C@H](NC(=O)CCCCCCCCCCCCCCCCCCC(=O)O)C(=O)O)C(=O)N[C@@H](Cc1c[nH]cn1)C(=O)N[C@@H](CCC(N)=O)C(=O)NC(C)(C)C(=O)N[C@@H](CCC(=O)O)C(=O)N[C@@H](Cc1ccccc1)C(=O)N[C@H](C(=O)N[C@@H](CC(N)=O)C(=O)N[C@@H](Cc1ccc(O)cc1)C(=O)N[C@@H](CC(C)C)C(=O)N[C@@H](CC(C)C)C(=O)N[C@@H](CCC(=O)O)C(=O)NCC(=O)NCC(=O)N1CCC[C@H]1C(=O)N[C@@H](CO)C(=O)N[C@@H](CO)C(=O)NCC(=O)N[C@@H](C)C(=O)N1CCC[C@H]1C(=O)N1CCC[C@H]1C(=O)N1CCC[C@H]1C(=O)N[C@@H](CO)C(N)=O)C(C)C [Example 33] (Ac-[dY]AEGT[αMePhe(2-F)]ISDYSIALDKK([AEEA-AEEA-γGlu-C20 diacid])HQ[Aib]EFVNYLLEGGPSSGAPPPS-NH2)
Ki [1]: 0.0369 nM | Ki [2]: 31.2 nM

CC[C@H](C)[C@H](NC(=O)[C@H](CO)NC(=O)[C@H](Cc1ccc(O)cc1)NC(=O)[C@H](CC(=O)O)NC(=O)[C@H](CO)NC(=O)[C@@H](NC(=O)[C@](C)(Cc1ccccc1F)NC(=O)[C@@H](NC(=O)CNC(=O)[C@H](CCC(=O)O)NC(=O)C(C)(C)NC(=O)[C@@H](N)Cc1ccc(O)cc1)[C@@H](C)O)[C@@H](C)CC)C(=O)N[C@@](C)(CC(C)C)C(=O)N[C@@H](CC(C)C)C(=O)N[C@@H](CC(=O)O)C(=O)N[C@@H](CCCCN)C(=O)N[C@@H](CCCCNC(=O)COCCOCCNC(=O)COCCOCCNC(=O)CC[C@H](NC(=O)CCCCCCCCCCCCCCCCCCC(=O)O)C(=O)O)C(=O)N[C@@H](Cc1c[nH]cn1)C(=O)N[C@@H](CCC(N)=O)C(=O)NC(C)(C)C(=O)N[C@@H](CC(=O)O)C(=O)N[C@@H](Cc1ccccc1)C(=O)N[C@H](C(=O)N[C@@H](CCC(=O)O)C(=O)N[C@@H](Cc1ccncc1)C(=O)N[C@@H](CC(C)C)C(=O)N[C@@H](CC(C)C)C(=O)N[C@@H](C)C(=O)NCC(=O)NCC(=O)N1CCC[C@H]1C(=O)N[C@@H](CO)C(=O)N[C@@H](CO)C(=O)NCC(=O)N[C@@H](C)C(=O)N1CCC[C@H]1C(=O)N1CCC[C@H]1C(=O)N1CCC[C@H]1C(=O)N[C@@H](CO)C(N)=O)C(C)C [Example 51] (H-Y[Aib]EGT[αMePhe(2-F)]ISDYSI[αMeL]LDKK([AEEA-AEEA-γGlu-C20 diacid])HQ[Aib]DFVE[4Pal]LLAGGPSSGAPPPS-NH2)
Ki [1]: 0.0386 nM | Ki [2]: 54.1 nM

CC[C@H](C)[C@H](NC(=O)[C@H](Cc1ccccc1)NC(=O)[C@@H](NC(=O)CNC(=O)[C@H](CCC(=O)O)NC(=O)C(C)(C)NC(=O)[C@@H](N)Cc1ccc(O)cc1)[C@@H](C)O)C(=O)N[C@@H](CO)C(=O)N[C@@H](CC(=O)O)C(=O)N[C@@H](Cc1ccc(O)cc1)C(=O)N[C@@H](CO)C(=O)N[C@H](C(=O)N[C@@](C)(CC(C)C)C(=O)N[C@@H](CC(C)C)C(=O)N[C@@H](CC(=O)O)C(=O)N[C@@H](CCCCN)C(=O)N[C@@H](CCCCNC(=O)COCCOCCNC(=O)COCCOCCNC(=O)CC[C@H](NC(=O)CCCCCCCCCCCCCCCCCCC(=O)O)C(=O)O)C(=O)N[C@@H](Cc1c[nH]cn1)C(=O)N[C@@H](CCC(N)=O)C(=O)NC(C)(C)C(=O)N[C@@H](CC(=O)O)C(=O)N[C@@H](Cc1ccccc1)C(=O)N[C@H](C(=O)N[C@@H](CCC(=O)O)C(=O)N[C@@H](Cc1ccncc1)C(=O)N[C@@H](CC(C)C)C(=O)N[C@@H](CC(C)C)C(=O)N[C@@H](CCC(=O)O)C(=O)N[C@@H](CCC(N)=O)C(=O)NCC(=O)N1CCC[C@H]1C(=O)N[C@@H](CO)C(=O)N[C@@H](CO)C(=O)NCC(=O)N[C@@H](C)C(=O)N1CCC[C@H]1C(=O)N1CCC[C@H]1C(=O)N1CCC[C@H]1C(=O)N[C@@H](CO)C(N)=O)C(C)C)[C@@H](C)CC [Example 46] (H-Y[Aib]EGTFISDYSI[αMeL]LDKK([AEEA-AEEA-γGlu-C20 diacid])HQ[Aib]DFVE[4Pal]LLEQGPSSGAPPPS-NH2)
Ki [1]: 0.0319 nM | Ki [2]: 744 nM

CC[C@H](C)[C@H](NC(=O)[C@H](Cc1ccccc1)NC(=O)[C@@H](NC(=O)CNC(=O)[C@H](CCC(=O)O)NC(=O)C(C)(C)NC(=O)[C@@H](N)Cc1ccc(O)cc1)[C@@H](C)O)C(=O)N[C@@H](CO)C(=O)N[C@@H](CC(=O)O)C(=O)N[C@@H](Cc1ccc(O)cc1)C(=O)N[C@@H](CO)C(=O)N[C@H](C(=O)N[C@@](C)(CC(C)C)C(=O)N[C@@H](CC(C)C)C(=O)N[C@@H](CC(=O)O)C(=O)N[C@@H](CCCCN)C(=O)N[C@@H](CCCCNC(=O)COCCOCCNC(=O)COCCOCCNC(=O)CC[C@H](NC(=O)CCCCCCCCCCCCCCCCCCC(=O)O)C(=O)O)C(=O)N[C@@H](Cc1c[nH]cn1)C(=O)N[C@@H](CCC(N)=O)C(=O)NC(C)(C)C(=O)N[C@@H](CCC(=O)O)C(=O)N[C@@H](Cc1ccccc1)C(=O)N[C@H](C(=O)N[C@@H](CCC(=O)O)C(=O)N[C@@H](Cc1ccc(O)cc1)C(=O)N[C@@H](CC(C)C)C(=O)N[C@@H](CC(C)C)C(=O)N[C@@H](CCC(=O)O)C(=O)N[C@@H](CCC(N)=O)C(=O)NCC(=O)N1CCC[C@H]1C(=O)N[C@@H](CO)C(=O)N[C@@H](CO)C(=O)NCC(=O)N[C@@H](C)C(=O)N1CCC[C@H]1C(=O)N1CCC[C@H]1C(=O)N1CCC[C@H]1C(=O)N[C@@H](CO)C(N)=O)C(C)C)[C@@H](C)CC [Example 63] (H-Y[Aib]EGTFISDYSI[αMeL]LDKK([AEEA-AEEA-γGlu-C20 diacid])HQ[Aib]EFVEYLLEQGPSSGAPPPS-NH2)
Ki [1]: 0.0248 nM | Ki [2]: 327 nM
